Experiments:
[1] = system: hind paw mechanical allodynia (BTZ-induced CIPN); assay: CIPN-reversal study: Dynamic Aesthesiometer Test, mechanical threshold; assay type: in vivo, Wistar rat
Protocol: (§1) Wistar female rats (n=52) (Envigo, Correzzano, Italy) at 10-11 weeks of age were utilized. The study was divided into 2 phases of 4 weeks each. […] Body weight was measured periodically during phase 1 from baseline (day 1) to day 28. At baseline and conclusion of phase 1 (day 28), nerve conduction velocity (NCV) was performed on caudal and sciatic nerves and Dynamic Aesthesiometer Test (DAT) measured mechanical threshold (MT) of the hind paw. […] Body weight was measured periodically from baseline (day 28) to day 56 (termination). NCV and MT were measured in all 4 groups at baseline and on day 35 and 56. […] At termination, sciatic nerves were obtained for β-tubulin polymerization and skin samples were procured for intraepidermal nerve fiber (IENF) density and histopathology.
MT was assessed with the DAT device (Model 37450, Ugo Basile Biological Instruments, Comerio, Italy). After acclimation, a servo-controlled pointed metallic filament (0.5 mm diameter) was placed on plantar surface of the hind paw and exerted a progressive punctate pressure up to 50 grams within 20 seconds. The pressure elicited a voluntary hind paw withdrawal response that was recorded and represented MT index. MT was collected alternatively on each side every 2 minutes on 3 occasions to yield a mean value. Mean MT values represented maximum pressure (grams) tolerated by each rat. Exposure of each animal to mechanical stimulus was limited to 30 seconds.

[2] = system: RPMI 8226 cells; assay: In vitro BTZ cytotoxicity study (SRB assay); assay type: cell-based; conditions: Homo sapiens, 72 hours, read-out: IC50 of % cell survival
[3] = system: proteasome; assay: Proteasome inhibition assay in PBMCs of treated rats; assay type: in vivo, rat
Protocol: as §1

[4] = In vivo anti-tumor (interference) study: body weight; parameters: species or system athymic nude mouse; conditions: 28 days
From the text: Care and husbandry of mice complied with USDA (U.S. Department of Agriculture) Animal Welfare Act and START IACUC (Institutional Animal Care and Use Committee) regulations. The protocol was reviewed and approved by START IACUC. Mice were individually housed in Sealsafe® Plus ventilated cages (Techniplast, West Chester, Pa., USA) and fed with Teklad 2919 (Envigo, Somerset, N.J., USA), irradiated, 19% protein, 9% fat and 4% fiber mouse chow. Mice were maintained under controlled environmental conditions (22+/−2° C. temperature, 55+/−10% relative humidity and 12-hour light/dark cycle (7 a.m.-7 p.m.).
South Texas Accelerated Research Therapeutics (START) (San Antonio, Tex., USA) conducted this study. […] The 30 mg/kg dose was tolerated in preclinical safety studies and anticipated to result in exposures in excess of the therapeutic range for 28 days. Body weight, TV and animal observations were collected twice per week to day 18 (termination) for vehicle control mice and twice per week to day 28 (termination) for each of the other 3 groups. Mean±SD body weight and TV were analyzed with Kruskal-Wallis and Dunn multiple comparison test at day 18 and with Mann Whitney test at day 28 with statistical significance at p<0.05.

[5] = system: human MMCs (RPMI 8226, MM.1S, U266B1); assay: In vitro cytotoxicity and combination (BTZ and CX-8998) interference study, SRB assay in the 3 MCLs; assay type: cell-based; conditions: 72 hours
Protocol: (§2) Cells were plated in 96-well plates (Eppendorf, Milano, Italy) at 10000 cells/well. […] After incubation, BTZ was diluted in culture medium at dose range for testing. Cells were fixed with trichloroacetic acid for 1 hour. Cells were stained with a solution of SRB in 1% acetic acid for 15 minutes. Unbound dye was removed by 5 washes with 1% acetic acid. Bound dye was dissolved with a solution of Tris (hydroxymethyl) aminomethane base and absorbance of content was measured at […]. Growth inhibition was expressed as percentage of DMSO control absorbance of cells and corrected for absorbance before addition of drug.
Differences in percent cell survival between each drug or drug combination and control were analyzed by non-linear least squares with statistical significance at p<0.05.

[6] = system: U266B1 cells; assay: In vitro BTZ cytotoxicity study (SRB assay); assay type: cell-based; conditions: Homo sapiens, 72 hours, read-out: IC50 of % cell survival
Protocol: (§3) MM.1S and U266B1 cells were obtained from the American Type Culture Collection (San Giovanni, Italy). All cell lines were maintained in floating culture with RPMI medium that contained 2 mM L-glutamine supplemented with 10% FBS, penicillin and streptomycin. MM.1S cell medium was supplemented with 1.5 g/L sodium bicarbonate, 10 mM HEPES and 1 mM sodium pyruvate. Cells were grown in 75 cm^2 culture flasks for floating cells (Corning Inc. Corning, N.Y., USA) at 37° C. in 5% CO2 and 95% air.
as §2

[7] = system: MM.1S cells; assay: In vitro BTZ cytotoxicity study (SRB assay); assay type: cell-based; conditions: Homo sapiens, MM1.S, 72 hours, read-out: IC50 of % cell survival
Protocol: as §3, §2

[8] = BTZ vs BTZ+ CX-8998 3 mg/kg, P > 0.05 ns
[9] = BTZ vs BTZ+ CX-8998 10 mg/kg, P > 0.05 ns
[10] = BTZ vs BTZ+ CX-8998 30 mg/kg, P > 0.05 ns
[11] = BTZ+ CX-8998 3 mg/kg vs BTZ+ CX-8998 30 mg/kg, P > 0.05 ns
[12] = BTZ+ CX-8998 10 mg/kg vs BTZ+ CX-8998 30 mg/kg, P > 0.05 ns
[13] = CTRL vs BTZ+ CX-8998 3 mg/kg, P > 0.05 ns
[14] = CTRL vs BTZ+ CX-8998 10 mg/kg, P < 0.05 *
[15] = CTRL vs BTZ+ CX-8998 30 mg/kg, P > 0.05 ns

## CC(C)C[C@H](NC(=O)[C@H](Cc1ccccc1)NC(=O)c1cnccn1)B(O)O [BTZ, bortezomib, reference compound]
[1]; CTRL vs BTZ, P < 0.001 ***
  DYNAMIC TEST 8 WEEKS, Difference in rank sum (Dunn's Multiple Comparison Test): 23.19
[1]; CTRL vs BTZ, P < 0.05 *
  DYNAMIC TEST 5 WEEKS, Difference in rank sum (Dunn's Multiple Comparison Test): 17.24
[1]; week 4, BTZ vs control, p<0.0001
  mechanical threshold (MT) in hind paws: significantly reduced
[2]
  IC50: 4 ± 1.7 nM
[3]; BTZ, week 4 vs baseline, p<0.05
  % proteasome activity in circulating PBMCs: significant inhibition
[3]; weeks 5 and 8, BTZ alone
  proteasome activity: similarly inhibited
[4]; 1 mg/kg BTZ alone iv twice weekly
  body weight: transient body weight loss during first two weeks of treatment and no weight gain at day 18 and 28
[5]; BTZ 0.05-250 nM, 3 MCLs
  inhibition of cell growth (cytotoxicity): concentration-dependent inhibition of cell growth
[5]; BTZ alone at IC50 (6, 4, 2.5 nM) vs DMSO control, p<0.001
  percent cell survival: significantly reduced
[6]
  IC50: 2.5 ± 0.6 nM
[7]
  IC50: 6 ± 0.5 nM

## CC(C)c1ccc(CC(=O)N[C@H](C)c2ccc(OCC(F)(F)F)cn2)cc1 [CX-8998, (R)-2-(4-Isopropylphenyl)-N-(1-(5-(2,2,2-Trifluoroethoxy)pyridin-2-yl)ethyl)acetamide]
[1]; [8]
  DYNAMIC TEST 5 WEEKS, Difference in rank sum (Dunn's Multiple Comparison Test): −13.99
  DYNAMIC TEST 8 WEEKS, Difference in rank sum (Dunn's Multiple Comparison Test): −15.63
[1]; [9]
  DYNAMIC TEST 5 WEEKS, Difference in rank sum (Dunn's Multiple Comparison Test): −0.7411
  DYNAMIC TEST 8 WEEKS, Difference in rank sum (Dunn's Multiple Comparison Test): −6.500
[1]; [10]
  DYNAMIC TEST 5 WEEKS, Difference in rank sum (Dunn's Multiple Comparison Test): −6.679
  DYNAMIC TEST 8 WEEKS, Difference in rank sum (Dunn's Multiple Comparison Test): −9.688
[1]; BTZ+ CX-8998 3 mg/kg vs BTZ+ CX-8998 10 mg/kg, P > 0.05 ns
  DYNAMIC TEST 8 WEEKS, Difference in rank sum (Dunn's Multiple Comparison Test): 9.125
[1]; [11]
  DYNAMIC TEST 5 WEEKS, Difference in rank sum (Dunn's Multiple Comparison Test): 7.313
  DYNAMIC TEST 8 WEEKS, Difference in rank sum (Dunn's Multiple Comparison Test): 5.938
[1]; [12]
  DYNAMIC TEST 5 WEEKS, Difference in rank sum (Dunn's Multiple Comparison Test): −5.938
  DYNAMIC TEST 8 WEEKS, Difference in rank sum (Dunn's Multiple Comparison Test): −3.188
[1]; [13]
  DYNAMIC TEST 5 WEEKS, Difference in rank sum (Dunn's Multiple Comparison Test): 3.250
  DYNAMIC TEST 8 WEEKS, Difference in rank sum (Dunn's Multiple Comparison Test): 7.563
[1]; [14]
  DYNAMIC TEST 5 WEEKS, Difference in rank sum (Dunn's Multiple Comparison Test): 16.50
  DYNAMIC TEST 8 WEEKS, Difference in rank sum (Dunn's Multiple Comparison Test): 16.69
[1]; [15]
  DYNAMIC TEST 5 WEEKS, Difference in rank sum (Dunn's Multiple Comparison Test): 10.56
  DYNAMIC TEST 8 WEEKS, Difference in rank sum (Dunn's Multiple Comparison Test): 13.50
[4]; 1 mg/kg BTZ in combination with 30 mg/kg CX-8998 orally once daily
  body weight: transient body weight loss during first two weeks of treatment and no weight gain at day 18 and 28
